Data on 1 compound can be found in US9566263B2, “Methods and formulations for treating scars and β-catenin-mediated disorders” (Hospital for Sick Children, priority 2009, dated 2017).

The test system of assay [1] is cultured cells derived from hyperplastic wounds. Put plainly: SRB cell viability, hyperplastic wound cells. The assay is classed as cell-based, human. The conditions noted are these: hyperplastic wound cell cultures, vs DMSO control, SRB assay. The procedure: (§1) The biological relevance of the screen was considerable since cells used for the screen were obtained from patients with hyperplastic wounds as well as healthy tissue. The experiments were repeated in triplicate within 96 well plates, with each well containing 4000 cells treated with between 0.1 1.0, or 10 μM of compound or DMSO as a control. The Sulforhodamine B assay (SRB) was used to measure cell viability.
In general terms: The SRB assay estimates cell density from bound dye.

For assay [2], the system named is normal dermal fibroblast cultures. The assay can be described thus: SRB cell viability, normal fibroblasts. The assay is classed as cell-based, human. The conditions noted are these: SRB assay. The procedure: as §1
In assay [3] the test system is β-catenin. Put plainly: Western blot of β-catenin in hyperplastic wound cell cultures. The assay is classed as cell-based, human. The conditions noted are these: vs DMSO control. The procedure:
Tissue samples were washed twice with PBS and lysed with Reporter Gene Assay Lysis Buffer (Roche). Lysates were centrifuged at 16,000×g for 5 minutes to remove cell debris and quantified using the Bicinchoninic Acid (BCA) Protein Assay (Pierce). Equal amounts of total protein were separated by electrophoresis through an SDS-polyacrylamide gel, transferred to a nitrocellulose membrane (Amersham), and immunoblotted overnight at 4° C. with primary antibodies against phosphoGSK3β ([…], rabbit polyclonal, New England Biolabs), β-catenin (mouse monoclonal, Upstate Biotechnology), total GSK3β (mouse monoclonal, Transduction Laboratories), and GAPDH (mouse monoclonal, Upstate Biotechnology). Horseradish Peroxidase (HRP)-tagged secondary antibodies and Enhanced ChemiLuminescence (Amersham) were used to detect hybridization. Densitometery was performed using the AlphaEaseFC software (Alpha Innotech). Western blotting was performed in triplicates to ensure reproducibility. β-catenin levels in cell cultures from hyperplastic scars treated with Nefopam or control were analyzed using Western blot analysis. […] GAPDH expression was included as a loading control.
(A western blot detects proteins with antibodies after separation by electrophoresis.)

The test system of assay [4] is aggressive fibromatosis (AF) tumours. Put plainly: Apc+/Apc1638N AF mouse model. The assay is classed as in vivo. The conditions noted are these: male Apc/Apc1638N mice. The text has this: The generation and phenotype of Apc/Apc1638N mice have been well characterized. These mice harbour a targeted mutation at codon 1638 in the Apc gene as a result of a neomycin insert in antisense orientation at exon 15. […] Treatment by daily oral gavaging began 2 months after Apc/Apc1638N mice were weaned and continued for 3 months. At autopsy, AF tumours and intestinal polyps were scored macroscopically. AF tumours and normal tissue were collected for protein extraction and fixed for histological examination.

Assay [5] has as its system β-catenin. The assay can be described thus: Western blot/densitometry of β-catenin in human AF tumour primary cell cultures. The assay is classed as cell-based. The procedure:
Primary cell cultures from the human AF tumour and normal fascial tissue samples were established. Monolayer cultures were cultured in DMEM supplemented with 10% fetal bovine serum and maintained at 37° C. in 5% CO2. Cells were divided when confluent and experiments were performed between the first and fifth passages. […] Tissue samples were washed twice with PBS and lysed with Reporter Gene Assay Lysis Buffer (Roche). Lysates were centrifuged at 16,000×g for 5 minutes to remove cell debris and quantified using the Bicinchoninic Acid (BCA) Protein Assay (Pierce). Equal amounts of total protein were separated by electrophoresis through an SDS-polyacrylamide gel, transferred to a nitrocellulose membrane (Amersham), and immunoblotted overnight at 4° C. with primary antibodies against phosphoGSK3β ([…], rabbit polyclonal, New England Biolabs), β-catenin (mouse monoclonal, Upstate Biotechnology), total GSK3β (mouse monoclonal, Transduction Laboratories), and GAPDH (mouse monoclonal, Upstate Biotechnology). Horseradish Peroxidase (HRP)-tagged secondary antibodies and Enhanced ChemiLuminescence (Amersham) were used to detect hybridization. Densitometery was performed using the AlphaEaseFC software (Alpha Innotech). Western blotting was performed in triplicates to ensure reproducibility.

Assay [6] concerns primary cells derived from human AF tumours. The assay can be described thus: Trypan Blue cell viability, human AF tumour cells. The assay is classed as cell-based. As to conditions: 5 days, vs 0.1% DMSO. The procedure:
(§2) Primary cell cultures from the human AF tumour and normal fascial tissue samples were established. Monolayer cultures were cultured in DMEM supplemented with 10% fetal bovine serum and maintained at 37° C. in 5% CO2. Cells were divided when confluent and experiments were performed between the first and fifth passages.
(§3) Cell viability was measured using the Trypan Blue Dye Exclusion method. Cells were stained with Trypan Blue Dye at a 1:1 ratio, and both live (clear) and dead (blue) cells were accounted for. Proliferation was measured using 5-bromo-2-deoxy-uridine (BrdU) Incorporation assay. After BrdU incubation for 12 hours, cells with incorporated BrdU were identified using […] anti-BrdU antibody and horse anti-mouse antibody conjugated to Alkaline Phosphatase. Presence of BrdU was detected using Alkaline Phosphatase substrate. Percentage of positively stained nuclei out of total nuclei was analyzed over 10 high-powered fields.

The subject of assay [7] is primary cells derived from human aggressive fibromatosis tumours. The assay can be described thus: BrdU incorporation proliferation assay, human AF tumour cells. The assay is classed as cell-based. The conditions noted are these: 5 days, vs DMSO. As to the method: as §2, §3
Assay [8] concerns β-catenin. Put plainly: Western blot/densitometry of β-catenin in human fibroblast cells. The assay is classed as cell-based. The procedure: Tissue samples were washed twice with PBS and lysed with Reporter Gene Assay Lysis Buffer (Roche). Lysates were centrifuged at 16,000×g for 5 minutes to remove cell debris and quantified using the Bicinchoninic Acid (BCA) Protein Assay (Pierce). Equal amounts of total protein were separated by electrophoresis through an SDS-polyacrylamide gel, transferred to a nitrocellulose membrane (Amersham), and immunoblotted overnight at 4° C. with primary antibodies against phosphoGSK3β ([…], rabbit polyclonal, New England Biolabs), β-catenin (mouse monoclonal, Upstate Biotechnology), total GSK3β (mouse monoclonal, Transduction Laboratories), and GAPDH (mouse monoclonal, Upstate Biotechnology). Horseradish Peroxidase (HRP)-tagged secondary antibodies and Enhanced ChemiLuminescence (Amersham) were used to detect hybridization. Densitometery was performed using the AlphaEaseFC software (Alpha Innotech). Western blotting was performed in triplicates to ensure reproducibility. Hyperplastic wounds are characterized by elevated β-catenin levels during the proliferative phase.

In assay [9] the test system is β-catenin. Put plainly: Western blot of β-catenin in wounds of Tcf mice. As to conditions: 40 mg/kg daily intraperitoneal, 14 days post-wounding, vs control. The assay is classed as in vivo, mouse. The text has this: A Tcf-reporter construct containing the lacZ gene downstream of a c-Fos minimal promoter and three consensus Tcf-binding motifs was constructed. Upon binding of β-catenin/Tcf complex to Tcf motifs, the expression of lacZ is activated. Tcf mice were wounded as described previously: two 4 mm diameter full-thickness skin wounds were generated using a dermal biopsy punch (Miltex Instrument Company, York, Pa., USA). […] At 14 days post-wounding, wound sizes were examined, and wound tissues were collected for RNA and protein extraction and fixed for histological examination. Tissue samples were washed twice with PBS and lysed with Reporter Gene Assay Lysis Buffer (Roche). Lysates were centrifuged at 16,000×g for 5 minutes to remove cell debris and quantified using the Bicinchoninic Acid (BCA) Protein Assay (Pierce). Equal amounts of total protein were separated by electrophoresis through an SDS-polyacrylamide gel, transferred to a nitrocellulose membrane (Amersham), and immunoblotted overnight at 4° C. with primary antibodies against phosphoGSK3β ([…], rabbit polyclonal, New England Biolabs), β-catenin (mouse monoclonal, Upstate Biotechnology), total GSK3β (mouse monoclonal, Transduction Laboratories), and GAPDH (mouse monoclonal, Upstate Biotechnology). Horseradish Peroxidase (HRP)-tagged secondary antibodies and Enhanced ChemiLuminescence (Amersham) were used to detect hybridization. […]

The subject of assay [10] is 4 mm full thickness cutaneous wounds. Put plainly: Wound/scar size in Tcf mice, systemic Nefopam. The assay is classed as in vivo, mouse. The conditions noted are these: 4 mm punch wound, 40 mg/kg daily systemic, day 14 post-wounding, vs saline carrier. The text has this:
A Tcf-reporter construct containing the lacZ gene downstream of a c-Fos minimal promoter and three consensus Tcf-binding motifs was constructed. Upon binding of β-catenin/Tcf complex to Tcf motifs, the expression of lacZ is activated. Tcf mice were wounded as described previously: two 4 mm diameter full-thickness skin wounds were generated using a dermal biopsy punch (Miltex Instrument Company, York, Pa., USA). […] At 14 days post-wounding, wound sizes were examined, and wound tissues were collected for RNA and protein extraction and fixed for histological examination. […] Cutaneous wounds were generated using a biopsy punch procedure resulting in a 4 mm diameter full thickness circular wound. Scale is in mm units.

For assay [11], the system named is hyperplastic scars. Put plainly: TGF-β induced hyperplastic scar model. The assay is classed as in vivo, mouse. The conditions noted are these: mice, TGF-β injected prior to wounding, 4 mm punch wounds, 40 mg/kg daily. The procedure: Both oral and intraperitoneal administration routes were evaluated (40 mg/kg body weight, daily; 0.1% DMSO as control).

Molecules are shown by their SMILES. Entries after “also recorded” stand apart in the source; their conditions may differ.

As for `CN1CCOC(c2ccccc2)c2ccccc2C1` (stereo not drawn) [Nefopam, 5-methyl-1-phenyl-1,3,4,6-tetrahydro-2,5-benzoxazocine], the results for the percent cell survival entry in assay [1] and in [2] were “significant decline in the percent of cells surviving” and “remained relatively unchanged”, respectively. Besides, the β-catenin protein levels result in assay [3] is on record as “substantially reduce β-catenin protein levels; also recorded: substantially reduced the protein level of β-catenin”. In assay [4] (40 mg/kg daily oral gavage), the “number of epithelial-derived polyps in the upper gastrointestinal tract” value is recorded as “no significant differences”. In assay [4] (40 mg/kg daily oral gavage for 3 months, at 6 months of age, mean ± 95% CI), the “number of AF tumours formed” value came out at 8.18±1.77. Besides, the “decrease in total β-catenin levels (densitometry)” value in assay [5] (250 μm Nefopam for 5 days vs 0.1% DMSO) was about 5 fold; in assay [8] (human fibroblast cell cultures vs 0.1% DMSO), “approximately 4 fold”. The “total β-catenin protein (92 kDa), Western blot” value in assay [5] (treatment for 5 days) is “marked decrease in the amount of protein”. For the same compound, the “number of dead cells” value in assay [6] is “the number of dead cells did not change; also recorded: no significant differences in the number of dead cells”. For the same compound, the “number of live cells” value in assay [6] is reported as “significantly decreased the number of live cells; also recorded: significantly smaller number of live cells”. For the same compound, the “percent BrdU+/DAPI+ cells (proliferation)” value in [7] is recorded as “significantly reduces the incorporation of BrdU; also recorded: significantly fewer proliferating cells”. In addition, in assay [8] (immortalized human fibroblast cells vs DMSO), the “total β-catenin protein levels, Western blot” value was “significant decrease in total β-catenin protein levels”. For the same compound, the “β-catenin levels in wounds” value in assay [9] is on record as “decrease in β-catenin levels”. The scar diameter entry in [10] was “significantly smaller in diameter”. Further, the hyperplastic scar size result in [11] is recorded as “smaller scars”.
